Read-outs that look alike come from different tables or passages of the source.
Legend:
[1] = OMEGA-3: plasma pharmacokinetics (sparse sampling and Week 4 intensive sub-study); assay type: in vivo, human (Japanese patients)
Protocol: Blood samples for the assessment of the plasma pharmacokinetics of adafosbuvir (and its metabolites ALS-022399 and ALS-022227), odalasvir, and simeprevir were collected in all patients pre-dose, between 2 and 4 h post-dose, and between 4 and 6 h post-dose at Weeks 2, 4, 6, and 8 (Cohort 2 only) and EOT (Weeks 8 or 12). An additional plasma sample was taken at any time during the Week-12 follow-up visit for measurement of odalasvir only.
Additional blood samples were also obtained at Week 4 in a subgroup of patients (planned: ≥ 6 patients per cohort) who consented to intensive pharmacokinetic sampling (pharmacokinetic sub-study). Blood samples for adafosbuvir (and its metabolites ALS-022399 and ALS-022227), odalasvir, and simeprevir plasma concentrations were collected pre-dose and at 1, 2, 3, 4, 6, 8, 10, 12, and 24 h post-dose.
Plasma concentrations of adafosbuvir, ALS-022399, ALS-022227, simeprevir, and odalasvir were determined using validated liquid chromatography–mass spectrometry methods. The LLOQ for adafosbuvir and odalasvir was 1.00 ng/mL, for ALS-022399 was 2.00 ng/mL, for ALS-022227 was 5.00 ng/mL, and for simeprevir was 20.0 ng/mL.
Descriptive statistics for plasma concentrations of adafosbuvir (and its metabolites), odalasvir, and simeprevir were calculated at each sampling time point. Pharmacokinetic parameters were derived by non-compartmental pharmacokinetic analysis of adafosbuvir (and its metabolites), odalasvir, and simeprevir in the pharmacokinetic sub-study using actual sampling time points and plasma concentrations obtained during intensive sampling at Week 4. Graphs of the mean plasma concentration–time profiles were produced. An exploratory graphical pharmacokinetic/pharmacodynamic analysis was performed by means of scatter plots of pharmacodynamic parameters (individual PR interval [mean of the triplicate ECG measurements] and change from baseline in PR interval [Day 1 was baseline]) versus odalasvir plasma concentrations.

HCV GTs 1–6 = tested on: HCV GTs 1–6; parameters: method as in doi:10.1016/S0168-8278(17)31470-8, PMID 30070722, PMID 30325939; conditions: cited from earlier work
[2] = OMEGA-3 Phase IIa study: adverse events and laboratory safety; assay type: in vivo, human (Japanese patients); conditions: given as part of JNJ-4178
Text: The study comprised a 6-week screening phase, an 8-week (Cohort 1: patients with no cirrhosis) or 12-week (Cohort 2: patients with compensated cirrhosis) open-label treatment phase, and a 24-week post-treatment follow-up period. Given that patients with HCV and compensated cirrhosis potentially have a higher safety risk than patients without compensated cirrhosis, dosing of Cohort 2 was only initiated after all safety data had been reviewed up to Week 4 for the first six patients in Cohort 1 by an independent Data Review Committee (Fig. 1). This study was conducted in accordance with the ethical principles that have their origin in the Declaration of Helsinki and that are consistent with Good Clinical Practices and applicable regulatory requirements. The study was approved by the relevant Institutional Review Board at each study center. All patients provided written, informed consent to participate.
Study drugs were administered orally with food at approximately the same time in the morning, each day.
(§1) The primary endpoint was safety, including but not limited to AEs, physical examination, vital signs, 12-lead ECGs, echocardiograms, and clinical laboratory results.
(§2) AEs were reported throughout the study from the time that informed consent to participate was received until completion of the last visit. Complete physical examination, vital signs assessments, and blood and urine sampling for clinical laboratory assessments (including hematological, serum chemistry, liver function, and urinalysis tests) were performed at screening and throughout the study. Triplicate ECGs and echocardiography were also performed at screening and during the study.
The safety analysis was performed on the Safety Set (all patients who received at least one dose of study drug). Safety data were analyzed descriptively. AEs were coded using the Medical Dictionary for Regulatory Activities (version 20.0). Laboratory abnormalities were assessed according to the World Health Organization Toxicity Grading Scale.

[3] = OMEGA-3: ECG and echocardiography; assay type: in vivo, human (Japanese patients); conditions: graphical evaluation
Text: as §1, §2
Descriptive statistics for plasma concentrations of adafosbuvir (and its metabolites), odalasvir, and simeprevir were calculated at each sampling time point. Pharmacokinetic parameters were derived by non-compartmental pharmacokinetic analysis of adafosbuvir (and its metabolites), odalasvir, and simeprevir in the pharmacokinetic sub-study using actual sampling time points and plasma concentrations obtained during intensive sampling at Week 4. Graphs of the mean plasma concentration–time profiles were produced. […]

[4] = tested on: HCV GT1, GT2, GT4, GT5, and GT6; parameters: method as in PMID 30693573, doi:10.1016/S0168-8278(12)60857-5; conditions: cited from earlier work
[5] = parameters: method as in PMID 29736243; conditions: single-dose pharmacokinetic studies (data on file) ref 24; cited from earlier work
HCV GT3 [6] = tested on: HCV GT3; parameters: method as in PMID 30693573; conditions: HCV GT3 (data on file); cited from earlier work
HCV GT3 [7] = tested on: HCV GT3; parameters: method as in PMID 22326470; conditions: cited from earlier work
CYP3A = conditions: cited from earlier work
CYP1A2 = tested on: CYP1A2; parameters: method as in PMID 26453968; conditions: cited from earlier work
[8] = tested on: HCV GT1, GT2, GT4, GT5, and GT6; parameters: method as in PMID 22326470; conditions: cited from earlier work
[9] = Cohort 1: no cirrhosis (N = 22), 8 weeks
[10] = Cohort 2: compensated cirrhosis (N = 11), 12 weeks

C[C@]1(O)[C@H](n2ccc(=O)[nH]c2=O)O[C@](F)(CO)[C@H]1O [ALS-022227]
AUC24h, mean (SD) ([1]; human, in vivo): 6688 (3116) ng.h/mL
Cmax, mean (SD) ([1]; human, in vivo): 974 (554) ng/mL
Steady state judged from Ctrough levels ([1]; in vivo): steady-state exposure had been reached by Week 2

CC(C)OC(=O)[C@H](C)N[P@](=O)(OC[C@@]1(F)O[C@@H](n2ccc(=O)[nH]c2=O)[C@](C)(O)[C@@H]1O)Oc1ccccc1 [adafosbuvir]
Antiviral activity (HCV GTs 1–6): potent antiviral activity
Plasma trough concentration (Ctrough) ([1]; all visits, both patient cohorts, LLOQ 1.00 ng/mL adafosbuvir, 2.00 ng/mL ALS-022399): below the limit of quantification
AUC(0-t) ([1]; human, in vivo, plasma, Week 4, intensive sampling, Cohort 2 (n=2), first value listed, read-out: AUC24h, individual value): 3020 ng·h/mL
Cmax ([1]; human, in vivo, plasma, Week 4, intensive sampling, Cohort 2 (n=2), first value listed, read-out: Cmax, individual value): 964 ng/mL
AUC(0-t) ([1]; human, in vivo, plasma, Week 4, intensive sampling, Cohort 2 (n=2), second value listed, read-out: AUC24h, individual value): 3030 ng·h/mL
Cmax ([1]; human, in vivo, plasma, Week 4, intensive sampling, Cohort 2 (n=2), second value listed, read-out: Cmax, individual value): 1430 ng/mL
AUC(0-t) ([1]; human, in vivo, plasma, Week 4, intensive sampling, JNJ-4178 dosing, Cohort 1: no cirrhosis (n=8), read-out: AUC24h, mean (SD)): 1660 ng·h/mL
Cmax ([1]; human, in vivo, plasma, Week 4, intensive sampling, JNJ-4178 dosing, Cohort 1: no cirrhosis (n=8), read-out: Cmax, mean (SD)): 903 ng/mL
Treatment-related AE at least possibly related to the named drug [2, 9]: 6 (27.3) n (%)
Treatment-related AE at least possibly related to the named drug [2, 10]: 3 (27.3) n (%)
Treatment-related AE at least possibly related to the named drug ([2]; Overall (N = 33)): 9 (27.3) n (%)

COC(=O)N[C@H](C(=O)N1[C@H](c2nc3cc(-c4cc5ccc4CCc4ccc(c(-c6ccc7[nH]c([C@@H]8C[C@@H]9CCCC[C@@H]9N8C(=O)[C@@H](NC(=O)OC)C(C)C)nc7c6)c4)CC5)ccc3[nH]2)C[C@@H]2CCCC[C@@H]21)C(C)C [odalasvir]
AUC24h, mean (SD) ([1]; human, in vivo): 6320 (1898) ng.h/mL
Cmax, mean (SD) ([1]; human, in vivo): 342 (113) ng/mL
Maximum Cmax among pharmacokinetic sub-study patients ([1]; human, in vivo): 546 ng/mL
Ctrough levels in Cohort 2 compared with Cohort 1 ([1]; in vivo): modestly lower
Highest pre-dose concentration among patients ([1]; in vivo): 474 to 889 ng/mL
Steady state judged from Ctrough levels ([1]; in vivo): steady-state conditions had not entirely been reached yet at Week 4
Relationship between PR interval (absolute and change from baseline) and plasma concentrations [3]: no apparent relationship
Treatment-related AE at least possibly related to the named drug [2, 9]: 9 (40.9) n (%)
Treatment-related AE at least possibly related to the named drug [2, 10]: 4 (36.4) n (%)
Treatment-related AE at least possibly related to the named drug ([2]; Overall (N = 33)): 13 (39.4) n (%)
Potency [4]: picomolar
Terminal elimination half-life [5]: approximately 250 h
Activity (HCV GT3 [6]): nanomolar

COc1ccc2c(O[C@@H]3C[C@H]4C(=O)N[C@]5(C(=O)NS(=O)(=O)C6CC6)C[C@H]5/C=C\CCCCN(C)C(=O)[C@@H]4C3)cc(-c3nc(C(C)C)cs3)nc2c1C [simeprevir]
Ctrough, max (between-patient variability) ([1]; human, in vivo): 6090 ng/mL
Ctrough, min (between-patient variability) ([1]; human, in vivo): 92.2 ng/mL
Steady state judged from Ctrough levels ([1]; human, in vivo): steady-state exposure had been reached by Week 2
AUC(0-t) ([1]; human, in vivo, AUC24h, mean (SD)): 26900 ng·h/mL
Cmax ([1]; human, in vivo, Cmax, mean (SD)): 2200 ng/mL
Ctrough levels in Cohort 2 compared with Cohort 1 ([1]; in vivo): higher
Treatment-related AE at least possibly related to the named drug [2, 9]: 6 (27.3) n (%)
Treatment-related AE at least possibly related to the named drug [2, 10]: 2 (18.2) n (%)
Treatment-related AE at least possibly related to the named drug ([2]; Overall (N = 33)): 8 (24.2) n (%)
Antiviral activity in infected patients (HCV GT3 [7]): no antiviral activity
Metabolism (CYP3A): metabolized by cytochrome P450 (CYP) 3A
Inhibition of CYP3A (CYP3A; intestinal (not hepatic) CYP3A): mild inhibitor
Inhibition of CYP1A2 (CYP1A2): mild, but not clinically relevant, inhibitor
Antiviral activity in infected patients [8]: demonstrated antiviral activity
